23 compounds from US20220411381A1, “PYRIMIDINEDIONE DERIVATIVES” (Bayer Aktiengesellschaft, priority 2019, published 2022) can be followed below.

The target in assay [1] is T1, recombinant human BCAT2 enzyme (Homo sapiens, UniProt O15382).
T1 construct: purchased ATGen (South Korea) ATGP1523
T1 sequence (O15382 28-392): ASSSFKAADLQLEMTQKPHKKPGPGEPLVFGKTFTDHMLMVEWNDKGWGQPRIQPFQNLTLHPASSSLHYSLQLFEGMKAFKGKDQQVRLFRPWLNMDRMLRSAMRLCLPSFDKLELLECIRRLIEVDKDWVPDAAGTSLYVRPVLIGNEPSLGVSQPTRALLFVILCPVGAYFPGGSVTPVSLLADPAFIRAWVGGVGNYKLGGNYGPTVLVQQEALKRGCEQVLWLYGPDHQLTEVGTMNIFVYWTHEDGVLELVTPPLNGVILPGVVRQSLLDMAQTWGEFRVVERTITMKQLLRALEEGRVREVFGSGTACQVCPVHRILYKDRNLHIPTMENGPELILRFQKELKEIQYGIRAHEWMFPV
Nature of the assay: In vitro assay 1b: BCAT2 biochemical assay (coupled LeuDH/NADH fluorescence readout). Also: recombinant human BCAT2 0.75 nM. To be noted: recombinant human BCAT2 […], 32° C., 100 μM leucine, 50 μM α-ketoglutarate, NADH fluorescence over 90 min; read-out: BCAT2 IC50. Here is the method: (§1) In Vitro Assay 1a and 1b: BCAT1 and BCAT2 Biochemical Assay
(§2) BOAT (Branched chain amino acid transferase) catalyzes transamination of the branched chain amino acid leucine to α-ketoisocaproate (KIC). The BOAT enzymatic reaction was measured in a coupled readout with leucine dehydrogenase (LeuDH) which catalyzes the Nicotinamide adenine dinucleotide (NADH) dependent reduction of KIC to leucine. NADH consumption is measured by fluorescent readout.
(§3) The biochemical reactions were performed at 32° C. in 384-well plates using a reaction volume of 51 μl and the following assay buffer conditions: 50 mM HEPES (2-[4-(2-hydroxyethyl)piperazin-1-yl]ethanesulfonic acid) pH 8.0, 50 mM aqueous solution of ammonium sulfate, 1 mM ethylenediaminetetraacetic acid, 2 mM dithiothreitol, 0.01% bovine serum albumine, 0.005% Brij 35 detergent, 0.5 μM PLP (pyridoxalphosphate), 10 μM NADH, and 50 μM α-ketoglutarate), and 100 μM leucine. […] Test compounds were used in a concentration range between 0.005 and 30 μM. The final DMSO concentration was 2%.
(§4) The reaction was initiated by addition of substrates (Leucine, α-KG, NADH).

Assay [2] deals with T2, recombinant human BCAT1 enzyme (Homo sapiens, UniProt P54687).
T2 construct: purchased ATGen (South Korea) ATGP1479
T2 sequence (P54687 1-386): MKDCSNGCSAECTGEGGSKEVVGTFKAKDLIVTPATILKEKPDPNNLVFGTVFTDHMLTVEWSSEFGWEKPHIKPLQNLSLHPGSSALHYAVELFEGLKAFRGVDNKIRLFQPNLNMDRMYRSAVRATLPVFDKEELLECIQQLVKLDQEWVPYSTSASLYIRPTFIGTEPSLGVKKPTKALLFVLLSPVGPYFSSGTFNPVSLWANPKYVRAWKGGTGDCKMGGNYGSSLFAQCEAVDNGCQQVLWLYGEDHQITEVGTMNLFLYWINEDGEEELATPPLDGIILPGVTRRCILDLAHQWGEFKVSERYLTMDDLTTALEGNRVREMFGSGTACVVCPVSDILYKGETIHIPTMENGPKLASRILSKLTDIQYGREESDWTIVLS
Nature of the assay: In vitro assay 1a: BCAT1 biochemical assay (coupled LeuDH/NADH fluorescence readout). The note with it: read-out: BCAT1 IC50. The method, then:
as §1, §2, §3, §4

Where [3] appears, read: recombinant human BCAT1 […], 32° C., 100 μM leucine, 50 μM α-ketoglutarate, NADH fluorescence over 90 min.

Where two headings read alike, the source gives them in different places.

`Cc1ccccc1Oc1cc(-n2c(=O)cc(C(F)(F)F)[nH]c2=O)c(Cl)cc1C#N` (racemic) [Example 11, 5-Chloro-4-[2,6-dioxo-4-(trifluoromethyl)-3,6-dihydropyrimidin-1(2H)-yl]-2-(2-methylphenoxy)benzonitrile (rac)]: the IC50 – broadly, the concentration at which inhibition is half-maximal – in assay [1] turned out to be 2 µM.
As to `COc1cc(C#N)c(Oc2ccccc2C)cc1-n1c(=O)cc(C(F)F)[nH]c1=O` (racemic) [Example 22, 4-[4-(Difluoromethyl)-2,6-dioxo-3,6-dihydropyrimidin-1(2H)-yl]-5-methoxy-2-(2-methylphenoxy)benzonitrile (rac)], the IC50 in assay [2] (setting [3]) stood at 0.15 µM.
Regarding `COc1cc(C#N)c(Oc2ccccc2C)cc1-n1c(=O)cc(C(F)(F)Cl)[nH]c1=O` (racemic) [Example 25, 4-{4-[Chloro(difluoro)methyl]-2,6-dioxo-3,6-dihydropyrimidin-1(2H)-yl}-5-methoxy-2-(2-methylphenoxy)benzonitrile (rac)], the figures for the IC50 in assay [2] (setting [3]) and in assay [1] were 0.2 µM and 1.3 µM, respectively.
On to `Cc1cccc(C)c1Oc1cc(-n2c(=O)cc(C(F)(F)F)[nH]c2=O)c(Cl)cc1C#N` (racemic) [Example 38, 5-Chloro-2-(2,6-dimethylphenoxy)-4-(2,6-dioxo-4-(trifluoromethyl)-2,3-dihydropyrimidin-1(6H)-yl)benzonitrile (rac)], for which the figures for the IC50 in assay [2] (setting [3]) and in assay [1] were 0.283 µM and 1.67 µM, respectively.
Taken in the same sequence, the figures for `Cc1ccccc1Oc1cc(-n2c(=O)cc(C(F)(F)F)[nH]c2=O)c(O)cc1C#N` (racemic) [Example 54, 4-[2,6-Dioxo-4-(trifluoromethyl)-3,6-dihydropyrimidin-1(2H)-yl]-5-hydroxy-2-(2-methylphenoxy)benzonitrile (rac)] were 1.8 µM and 15.5 µM.
As for `Cc1cc(C)c(Oc2cc(-n3c(=O)cc(C(F)(F)F)[nH]c3=O)c(F)cc2C#N)c(C)c1` [Example 62, 4-[2,6-Dioxo-4-(trifluoromethyl)-3,6-dihydropyrimidin-1 (2H)-yl]-5-fluoro-2-(2,4,6-trimethylphenoxy)benzonitrile], the IC50 in assay [2] (setting [3]) is 2.5 µM.
The same measure, in the same setting: the figure for `Cc1cccc(Oc2cc(-n3c(=O)cc(C(F)(F)F)[nH]c3=O)c(F)cc2C#N)c1C` [Example 67, 2-(2,3-Dimethylphenoxy)-4-[2,6-dioxo-4-(trifluoromethyl)-3,6-dihydropyrimidin-1(2H)-yl]-5-fluorobenzonitrile] is 5.1 µM.
`Cc1ccccc1Oc1cc(-n2c(=O)cc(C(F)(F)F)[nH]c2=O)c(Br)cc1C#N` (racemic) [Example 18, 5-Bromo-4-[2,6-dioxo-4-(trifluoromethyl)-3,6-dihydropyrimidin-1(2H)-yl]-2-(2-methylphenoxy)benzonitrile (rac)]: the IC50 in assay [2] (setting [3]) was determined as 0.2 µM; in assay [1], 2.6 µM.
On to `Cc1ccc(Oc2cc(-n3c(=O)cc(C(F)(F)F)[nH]c3=O)c(F)cc2C#N)c(C)c1` [Example 66, 2-(2,4-Dimethylphenoxy)-4-[2,6-dioxo-4-(trifluoromethyl)-3,6-dihydropyrimidin-1(2H)-yl]-5-fluorobenzonitrile], for which the IC50 in assay [2] (setting [3]) is 6.7 µM; in assay [1] it was 49 µM.
For “4-[4-(Methanesulfonyl)-2,6-dioxo-3,6-dihydropyrimidin-1(2H)-yl]-5-methoxy-2-(2-methylphenoxy)benzonitrile (atrop 2) [Example 81]”, the IC50 in assay [2] is 2.5 µM.
`Cc1cccc(C)c1Oc1cc(-n2c(=O)cc(C(F)(F)c3ccccc3)[nH]c2=O)c(F)cc1C#N` [Example 57, 4-{4-[Difluoro(phenyl)methyl]-2,6-dioxo-3,6-dihydropyrimidin-1(2H)-yl}-2-(2,6-dimethylphenoxy)-5-fluorobenzonitrile]: the IC50 in assay [2] (setting [3]) came out at 1.5 µM; in assay [1] it was 5 µM.
Turning to `Cc1ccccc1Oc1cc(-n2c(=O)cc(S(C)(=O)=O)[nH]c2=O)c(F)cc1C#N` [Example 75, 5-Fluoro-4-[4-(methanesulfonyl)-2,6-dioxo-3,6-dihydropyrimidin-1(2H)-yl]-2-(2-methylphenoxy)benzonitrile], the IC50 in assay [2] (setting [3]) amounted to 2.7 µM; in assay [1], 16 µM.
Consider `COc1cc(C#N)c(Oc2ccccc2C)cc1-n1c(=O)cc(S(C)(=O)=O)[nH]c1=O` (single isomer, unassigned) [Example 80, 4-[4-(Methanesulfonyl)-2,6-dioxo-3,6-dihydropyrimidin-1(2H)-yl]-5-methoxy-2-(2-methylphenoxy)benzonitrile (atrop 1)], for which the IC50 in assay [2] (setting [3]) was 0.3 µM; in assay [1], 2.5 µM.
With `Cc1ccccc1Oc1cc(-n2c(=O)cc(C(F)(F)c3ccccc3)[nH]c2=O)c(Cl)cc1C#N` (racemic) [Example 53, 5-Chloro-4-{4-[difluoro(phenyl)methyl]-2,6-dioxo-3,6-dihydropyrimidin-1(2H)-yl}-2-(2-methylphenoxy)benzonitrile (rac)], the values for the IC50 in assay [2] (setting [3]) and in assay [1] were 0.75 µM and 1.6 µM, respectively.
In the case of `COc1cc(C#N)c(Oc2ccccc2Cl)cc1-n1c(=O)cc(C(F)(F)F)[nH]c1=O` (single isomer, unassigned) [Example 17, 2-(2-Chlorophenoxy)-4-[2,6-dioxo-4-(trifluoromethyl)-3,6-dihydropyrimidin-1(2H)-yl]-5-methoxybenzonitrile (atrop 2)], the IC50 in assay [2] (setting [3]) came out at 19 µM.
On to `N#Cc1cc(F)c(-n2c(=O)cc(C(F)(F)F)[nH]c2=O)cc1Oc1c(N)cccc1F` [Example 64, 2-(2-Amino-6-fluorophenoxy)-4-[2,6-dioxo-4-(trifluoromethyl)-3,6-dihydropyrimidin-1(2H)-yl]-5-fluorobenzonitrile], for which the IC50 was determined as 0.297 µM in assay [2] (setting [3]) and 2.6 µM in assay [1].
As to `Cc1ccc(C)c(Oc2cc(-n3c(=O)cc(C(F)(F)F)[nH]c3=O)c(F)cc2C#N)c1C` [Example 60, 4-[2,6-Dioxo-4-(trifluoromethyl)-3,6-dihydropyrimidin-1(2H)-yl]-5-fluoro-2-(2,3,6-trimethylphenoxy)benzonitrile], in assay [2] (setting [3]), the IC50 was 7.5 µM.
Same read-out and setting: to `CC(=O)c1cc(C)cc(C)c1Oc1cc(-n2c(=O)cc(C(F)(F)F)[nH]c2=O)c(F)cc1C#N` [Example 58, 2-(2-Acetyl-4,6-dimethylphenoxy)-4-[2,6-dioxo-4-(trifluoromethyl)-3,6-dihydropyrimidin-1(2H)-yl]-5-fluorobenzonitrile] belongs 1.8 µM.
Turning to `COc1cc(C#N)c(Oc2ccccc2C)cc1-n1c(=O)cc(Br)[nH]c1=O` (single isomer, unassigned) [Example 21, 4-[4-Bromo-2,6-dioxo-3,6-dihydropyrimidin-1(2H)-yl]-5-methoxy-2-(2-methylphenoxy)benzonitrile (atrop 2)], the IC50 in assay [2] (setting [3]) is 0.145 µM; in assay [1], 3 µM.
As to `COc1cc(C#N)c(Oc2ccccc2C)cc1-n1c(=O)cc(C(F)(F)C(F)(F)F)[nH]c1=O` (racemic) [Example 51, 4-[2,6-Dioxo-4-(pentafluoroethyl)-3,6-dihydropyrimidin-1(2H)-yl]-5-methoxy-2-(2-methylphenoxy)benzonitrile (rac)], in assay [1], the IC50 amounted to 4.33 µM.
In the case of `COc1cc(C#N)c(Oc2ccccc2C)cc1-n1c(=O)cc(-c2ccccc2)[nH]c1=O` (single isomer, unassigned) [Example 43, 4-(2,6-Dioxo-4-phenyl-3,6-dihydropyrimidin-1(2H)-yl)-5-methoxy-2-(2-methylphenoxy)benzonitrile (atrop 1)], the IC50 in assay [2] (setting [3]) was 5.5 µM.
For `Cc1ccccc1Oc1cc(-n2c(=O)cc(C(F)(F)F)[nH]c2=O)c(Cl)cc1C#N` (single isomer, unassigned) [Example 13, 5-Chloro-4-[2,6-dioxo-4-(trifluoromethyl)-3,6-dihydropyrimidin-1(2H)-yl]-2-(2-methylphenoxy)benzonitrile (atrop 2)], the IC50 in assay [1] came to 2 µM.
On to `Cc1cc(Cl)cc(C)c1Oc1cc(-n2c(=O)cc(C(F)(F)F)[nH]c2=O)c(F)cc1C#N` [Example 61, 2-(4-Chloro-2,6-dimethylphenoxy)-4-[2,6-dioxo-4-(trifluoromethyl)-3,6-dihydropyrimidin-1(2H)-yl]-5-fluorobenzonitrile], for which the IC50 in assay [2] (setting [3]) stood at 2.5 µM.
